Measured values published in ChEMBL document CHEMBL4033623, “Synthesis of xanthone derivatives and studies on the inhibition against cancer cells growth and synergistic combinations of them” (Eur J Med Chem, 2017).
Calls of active or inactive are those of the source. No cut-off for these calls is given here.

How the values were obtained:
MCF7 [1] = experiment: Antiproliferative activity against human MCF7 cells after 48 hrs by CCK8 assay; type: functional, cell-based; conditions: MCF7, 48 h
HepG2 [2] = experiment: Antiproliferative activity against human HepG2 cells after 48 hrs by CCK8 assay; type: functional, cell-based; conditions: HepG2, 48 h
COLO 320 [3] = experiment: Antiproliferative activity against human COLO320 cells after 48 hrs by CCK8 assay; type: functional, cell-based; conditions: COLO 320, 48 h
MDA-MB-231 [4] = experiment: Antiproliferative activity against human MDA-MB-231 cells after 48 hrs by CCK8 assay; type: functional, cell-based; conditions: MDA-MB-231, 48 h
K562 [5] = experiment: Antiproliferative activity against human K562 cells after 48 hrs by CCK8 assay; type: functional, cell-based; conditions: K562, 48 h
K562 [6] = experiment: Synergistic antiproliferative activity against human K562 cells at compound to DMXAA mol ratio of 1:1 after 48 hrs by CCK8 assay; type: functional, cell-based; conditions: K562, 48 h
MCF7 [7] = experiment: Synergistic antiproliferative activity against human MCF7 cells at compound to DMXAA mol ratio of 1:1 after 48 hrs by CCK8 assay; type: functional, cell-based; conditions: MCF7, 48 h
COLO 320 [8] = experiment: Synergistic antiproliferative activity against human COLO320 cells at compound to DMXAA mol ratio of 1:1 after 48 hrs by CCK8 assay; type: functional, cell-based; conditions: COLO 320, 48 h
HepG2 [9] = experiment: Synergistic antiproliferative activity against human HepG2 cells at compound to DMXAA mol ratio of 1:1 after 48 hrs by CCK8 assay; type: functional, cell-based; conditions: HepG2, 48 h
MDA-MB-231 [10] = experiment: Synergistic antiproliferative activity against human MDA-MB-231 cells at compound to DMXAA mol ratio of 1:1 after 48 hrs by CCK8 assay; type: functional, cell-based; conditions: MDA-MB-231, 48 h
MDA-MB-231 [11] = experiment: Decrease in MDM2 level in human MDA-MB-231 cells at 24 to 96 uM after 48 hrs by Western blot analysis; type: functional, cell-based
MDA-MB-231 [12] = experiment: Decrease in caspase-3 level in human MDA-MB-231 cells at 24 to 96 uM after 48 hrs by Western blot analysis; type: functional, cell-based
MDA-MB-231 [13] = experiment: Increase in p53 level in human MDA-MB-231 cells at 24 to 96 uM after 48 hrs by Western blot analysis; type: functional, cell-based
MDA-MB-231 [14] = experiment: Induction of apoptosis in human MDA-MB-231 cells assessed as necrotic cells at 24 uM after 48 hrs by Annexin-V/FITC/PI staining based flow cytometry (reference value: 10.01 %); type: functional
MDA-MB-231 [15] = experiment: Induction of apoptosis in human MDA-MB-231 cells assessed as early apoptotic cells at 48 uM after 48 hrs by Annexin-V/FITC/PI staining based flow cytometry (reference value: 0.03 %); type: functional
MDA-MB-231 [16] = experiment: Induction of apoptosis in human MDA-MB-231 cells assessed as late apoptotic cells at 96 uM after 48 hrs by Annexin-V/FITC/PI staining based flow cytometry (reference value: 1.18 %); type: functional
MDA-MB-231 [17] = experiment: Induction of apoptosis in human MDA-MB-231 cells after 48 hrs by Annexin-V/FITC/PI staining based flow cytometry; type: functional, cell-based
MDA-MB-231 [18] = experiment: Induction of apoptosis in human MDA-MB-231 cells assessed as late apoptotic cells at 48 uM after 48 hrs by Annexin-V/FITC/PI staining based flow cytometry (reference value: 1.18 %); type: functional
MDA-MB-231 [19] = experiment: Induction of apoptosis in human MDA-MB-231 cells assessed as increase in cleaved PARP level at 24 to 96 uM after 48 hrs by Western blot analysis; type: functional, cell-based
MDA-MB-231 [20] = experiment: Induction of apoptosis in human MDA-MB-231 cells assessed as viable cells at 24 uM after 48 hrs by Annexin-V/FITC/PI staining based flow cytometry (reference value: 88.78 %); type: functional; conditions: MDA-MB-231, 48 h, read-out: Activity
MDA-MB-231 [21] = experiment: Induction of apoptosis in human MDA-MB-231 cells assessed as early apoptotic cells at 24 uM after 48 hrs by Annexin-V/FITC/PI staining based flow cytometry (reference value: 0.03 %); type: functional
MDA-MB-231 [22] = experiment: Induction of apoptosis in human MDA-MB-231 cells assessed as early apoptotic cells at 96 uM after 48 hrs by Annexin-V/FITC/PI staining based flow cytometry (reference value: 0.03 %); type: functional
MDA-MB-231 [23] = experiment: Induction of apoptosis in human MDA-MB-231 cells assessed as late apoptotic cells at 24 uM after 48 hrs by Annexin-V/FITC/PI staining based flow cytometry (reference value: 1.18 %); type: functional
MDA-MB-231 [24] = experiment: Induction of apoptosis in human MDA-MB-231 cells assessed as necrotic cells at 48 uM after 48 hrs by Annexin-V/FITC/PI staining based flow cytometry (reference value: 10.01 %); type: functional
MDA-MB-231 [25] = experiment: Induction of apoptosis in human MDA-MB-231 cells assessed as viable cells at 48 uM after 48 hrs by Annexin-V/FITC/PI staining based flow cytometry (reference value: 88.78 %); type: functional; conditions: MDA-MB-231, 48 h, read-out: Activity
MDA-MB-231 [26] = experiment: Induction of apoptosis in human MDA-MB-231 cells assessed as viable cells at 96 uM after 48 hrs by Annexin-V/FITC/PI staining based flow cytometry (reference value: 88.78 %); type: functional; conditions: MDA-MB-231, 48 h, read-out: Activity
MDA-MB-231 [27] = experiment: Decrease in caspase-9 level in human MDA-MB-231 cells at 24 to 96 uM after 48 hrs by Western blot analysis; type: functional, cell-based
MDA-MB-231 [28] = experiment: Induction of apoptosis in human MDA-MB-231 cells assessed as necrotic cells at 96 uM after 48 hrs by Annexin-V/FITC/PI staining based flow cytometry (reference value: 10.01 %); type: functional
MDA-MB-231 [29] = experiment: Induction of apoptosis in human MDA-MB-231 cells assessed as increase in cleaved caspase-3 expression at 24 to 96 uM after 48 hrs by Western blot analysis; type: functional, cell-based
MDA-MB-231 [30] = experiment: Cell cycle arrest in human MDA-MB-231 cells assessed as increase in accumulation at G2/M phase at 48 uM after 48 hrs by propidium iodide staining based flow cytometric method relative to control; type: functional

SMILES	IC50 (MCF7 [1]) [µM]	IC50 (HepG2 [2]) [µM]	IC50 (COLO 320 [3]) [µM]	IC50 (MDA-MB-231 [4]) [µM]	IC50 (K562 [5]) [µM]	also measured
O=c1c2cc(O)ccc2oc2cc(O)cc(O)c12	31.2	> 200	> 200	25.1	106	
O=c1c2cc(Br)ccc2oc2c(O)cccc12	22.9	82.6	102	12.5	> 200	
COc1cc(OC)c2c(=O)c3ccc(O)cc3oc2c1	11.2	8.7	12.1	9.6	29.1	IC50 (K562 [6]): 26.2 µM; IC50 (MCF7 [7]): 14.1 µM; IC50 (COLO 320 [8]): 10.2 µM; IC50 (HepG2 [9]): 8.43 µM; IC50 (MDA-MB-231 [10]): 9.13 µM
O=c1c2cc(O)ccc2oc2ccc(O)cc12 [EUXANTHONE]	128	> 200	91.2	83.5	73.5	
COc1cc(OC)c2c(=O)c3c(O)cccc3oc2c1	21.1	83.8	25.9	25.9	25.1	
COc1ccc2c(=O)c3cc(O)ccc3oc2c1	23.4	> 200	93.7	> 200	> 200	
O=c1c2ccc(O)cc2oc2cc(O)cc(O)c12	112	124	105	55.6	55.6	
COc1cc(OC)c2c(=O)c3cc(Br)ccc3oc2c1	43.1	87.1	77.1	87.1	52.1	
Cc1ccc2c(=O)c3cccc(CC(=O)O)c3oc2c1C [VADIMEZAN]	54.4	100	39.5	48.4	57.4	Activity (MDA-MB-231 [11]): Active; Activity (MDA-MB-231 [12]): Active; Activity (MDA-MB-231 [13]): Active; Activity (MDA-MB-231 [14]): 12.09%; Activity (MDA-MB-231 [15]): 2.22%; Activity (MDA-MB-231 [16]): 14.93%; Activity (MDA-MB-231 [17]): Dose-dependent effect; Activity (MDA-MB-231 [18]): 17.03%; Activity (MDA-MB-231 [19]): Active; viability at 24 µM (MDA-MB-231 [20]): 80.7%; Activity (MDA-MB-231 [21]): 0.53%; Activity (MDA-MB-231 [22]): 4.48%; Activity (MDA-MB-231 [23]): 6.65%; Activity (MDA-MB-231 [24]): 14.88%; viability at 48 µM (MDA-MB-231 [25]): 65.9%; viability at 96 µM (MDA-MB-231 [26]): 58.8%; Activity (MDA-MB-231 [27]): Active; Activity (MDA-MB-231 [28]): 21.83%; Activity (MDA-MB-231 [29]): Active; Activity (MDA-MB-231 [30]): 25%
O=c1c2ccc(O)cc2oc2cc(O)ccc12	91.3	61.7	37.7	31.7	31.2	
O=c1c2cc(Br)ccc2oc2c(O)c(O)ccc12	104	63.8	63.1	83.2	53.5	
O=c1c2ccc(O)cc2oc2c(O)c(O)ccc12	43.7	87.3	77.3	87.3	82.3	
O=c1c2cc(Cl)ccc2oc2cc(O)cc(O)c12	1.2	3.2	15.2	5.2	5.2	IC50 (K562 [6]): 2.27 µM; IC50 (MCF7 [7]): 1.15 µM; IC50 (COLO 320 [8]): 9.15 µM; IC50 (HepG2 [9]): 4.22 µM; IC50 (MDA-MB-231 [10]): 3.1 µM
O=c1c2ccc(O)cc2oc2ccc(O)cc12	92.4	52.2	31.5	32.4	88.9	
COc1cc(OC)c2c(=O)c3cc(Cl)ccc3oc2c1	21.4	31.2	11.5	11.4	19.4	
O=c1c2ccc(O)cc2oc2ccc(Cl)cc12	41.2	43.7	55.1	45.6	45.1	
COc1cc(O)c2c(=O)c3c(OC)cccc3oc2c1	34.3	32.7	35.7	34.7	34.2	
